Assays:
[1] = Acute toxicity in C57 mouse assessed as survival rate at 40.96 mg/kg, po administered daily for 14 days relative to control; type: organism-based; details: in vivo, time 14 day, read-out: Activity
HepG2 [2] = experiment: Induction of apoptosis in human HepG2 cells assessed as early apoptotic cells at 1 nM incubated for 48 hrs by Annexin V-FITC/PI staining based flow cytometric analysis (reference value: 7.01 %); type: functional
HepG2 [3] = experiment: Cell cycle arrest in human HepG2 cells assessed as accumulation of cells at S phase at 0.5 nM incubated for 48 hrs by RNaseA/PI staining based flow cytometric analysis (reference value: 23.81%); type: functional
HepG2 [4] = experiment: Induction of apoptosis in human HepG2 cells assessed as late apoptotic cells at 5 nM incubated for 48 hrs by Annexin V-FITC/PI staining based flow cytometric analysis (reference value: 4.96 %); type: functional
HepG2 [5] = experiment: Antimigratory activity in human HepG2 cells assessed as reduction in recovery area at 5 nM incubated for 24 hrs by wound healing assay (reference value: 65.84%); type: functional; design: scale not given: the % may be the effect or the level left
[6] = Half-life in Sprague-Dawley rat at 2 mg/kg, iv measured upto 12 hrs by UPLC-MS/ESI analysis; type: ADME, organism-based; details: in vivo
[7] = Toxicity in C57 mouse implanted with mouse B16-F10 cells assessed as pathological changes in kidney at 2.5 mg/kg, ip administered every day for 14 days in the presence of NP19 by H&E staining based microscopic analysis; type: organism-based; details: in vivo, 336 h, time 14 day
HepG2 [8] = experiment: Induction of apoptosis in human HepG2 cells assessed as early apoptotic cells at 5 nM incubated for 48 hrs by Annexin V-FITC/PI staining based flow cytometric analysis (reference value: 7.01 %); type: functional
[9] = Acute toxicity in C57 mouse assessed as survival rate at 64 mg/kg, po administered daily for 14 days relative to control; type: organism-based; details: in vivo, time 14 day, read-out: Activity
[10] = Toxicity in C57 mouse implanted with mouse B16-F10 cells assessed as pathological changes in kidney at 5 mg/kg, ip administered every day for 14 days by H&E staining based microscopic analysis; type: organism-based; details: in vivo, 336 h, time 14 day
HepG2 [11] = experiment: Induction of apoptosis in human HepG2 cells assessed as necrotic cells at 5 nM incubated for 48 hrs by Annexin V-FITC/PI staining based flow cytometric analysis (reference value: 0.443%); type: functional
HepG2 [12] = experiment: Cell cycle arrest in human HepG2 cells assessed as accumulation of cells at G2 phase at 5 nM incubated for 48 hrs by RNaseA/PI staining based flow cytometric analysis (reference value: 17.37%); type: functional
[13] = Toxicity in C57 mouse implanted with mouse B16-F10 cells assessed as pathological changes in liver at 5 mg/kg, ip administered every day for 14 days by H&E staining based microscopic analysis; type: organism-based; details: in vivo, 336 h, time 14 day
HepG2 [14] = experiment: Inhibition of colony formation in human HepG2 cells incubated for 24 hrs by crystal violet staining based analysis; type: functional, cell-based; details: dose 0.5-5 nM
HepG2 [15] = experiment: Induction of apoptosis in human HepG2 cells assessed as necrotic cells at 1 nM incubated for 48 hrs by Annexin V-FITC/PI staining based flow cytometric analysis (reference value: 0.443%); type: functional
HepG2 [16] = experiment: Cell cycle arrest in human HepG2 cells assessed as accumulation of cells at S phase at 1 nM incubated for 48 hrs by RNaseA/PI staining based flow cytometric analysis (reference value: 23.81%); type: functional
[17] = Toxicity in C57 mouse implanted with mouse B16-F10 cells assessed as body weight loss at 5 mg/kg, ip administered every day for 14 days; type: organism-based; details: in vivo, 336 h, time 14 day
[18] = Resistance index, ratio of IC50 for antiproliferative activity against paclitaxel resistant human A549/TxR cells to IC50 for antiproliferative activity against parental human A549S cells; type: functional
[19] = AUC (0 to t) in Sprague-Dawley rat at 20 mg/kg, po measured upto 12 hrs by UPLC-MS/ESI analysis; type: ADME, organism-based; design: time < 12 hrs, dose 20 mg/kg, route po; details: in vivo
[20] = MRT (0 to t) in Sprague-Dawley rat at 20 mg/kg, po measured upto 12 hrs by UPLC-MS/ESI analysis; type: ADME, organism-based; details: in vivo
HepG2 [21] = experiment: Induction of apoptosis in human HepG2 cells assessed as viable cells at 5 nM incubated for 48 hrs by Annexin V-FITC/PI staining based flow cytometric analysis (reference value: 87.6%); type: functional; details: read-out: Activity
HepG2 [22] = experiment: Antimigratory activity in human HepG2 cells assessed as reduction in recovery area at 1 nM incubated for 24 hrs by wound healing assay (reference value: 65.84%); type: functional; design: scale not given: the % may be the effect or the level left
HepG2 [23] = experiment: Induction of apoptosis in human HepG2 cells assessed as viable cells at 0.5 nM incubated for 48 hrs by Annexin V-FITC/PI staining based flow cytometric analysis (reference value: 87.6%); type: functional; details: read-out: Activity
B16-F10 [24] = experiment: Antiproliferative activity against mouse B16-F10 cells assessed as inhibition of cell proliferation incubated for 48 hrs by MTT assay; type: functional, cell-based; details: B16-F10, 48 h
B16-F10 [25] = experiment: Antitumor immunity in C57 mouse implanted with mouse B16-F10 cells assessed as increase in CD3+ CD4+ helper T cells in tumor at 5 mg/kg, ip administered every day for 14 days by flow cytometric analysis (reference value: 0.332%); type: functional; details: time 14 day
B16-F10 [26] = experiment: Antitumor activity against mouse B16-F10 cells implanted in C57 mouse assessed as tumor growth inhibition at 5 mg/kg, ip administered every day for 14 days relative to control; type: functional; details: B16-F10, 336 h, time 14 day, read-out: TGI
[27] = Antiproliferative activity against parental human A549S cells assessed as inhibition of cell proliferation incubated for 48 hrs by MTT assay; type: functional, cell-based
HepG2 [28] = experiment: Cell cycle arrest in human HepG2 cells assessed as accumulation of cells at G1 phase at 0.5 nM incubated for 48 hrs by RNaseA/PI staining based flow cytometric analysis (reference value: 56.11%); type: functional
[29] = Cytotoxicity against HUVEC cells assessed as inhibition of cell proliferation incubated for 24 hrs by MTT assay; type: toxicity, cell-based; details: human
[30] = Half-life in Sprague-Dawley rat at 20 mg/kg, po measured upto 12 hrs by UPLC-MS/ESI analysis; type: ADME, organism-based; details: in vivo
Tubulin = experiment: Binding affinity to tubulin (unknown origin) assessed as affinity constant by SPR analysis; type: protein-complex assay, Homo sapiens
HepG2 [31] = experiment: Cell cycle arrest in human HepG2 cells assessed as accumulation of cells at G2 phase at 1 nM incubated for 48 hrs by RNaseA/PI staining based flow cytometric analysis (reference value: 17.37%); type: functional
MCF7 = experiment: Antiproliferative activity against human MCF7 cells assessed as inhibition of cell proliferation incubated for 48 hrs by MTT assay; type: functional, cell-based; details: MCF7, 48 h
HepG2 [32] = experiment: Induction of apoptosis in human HepG2 cells assessed as necrotic cells at 0.5 nM incubated for 48 hrs by Annexin V-FITC/PI staining based flow cytometric analysis (reference value: 0.443%); type: functional
[33] = Acute toxicity in C57 mouse assessed as survival rate at 100 mg/kg, po administered daily for 14 days relative to control; type: organism-based; details: in vivo, time 14 day, read-out: Activity
[34] = MRT(0 to t) in Sprague-Dawley rat at 2 mg/kg, iv measured upto 12 hrs by UPLC-MS/ESI analysis; type: ADME, organism-based; details: in vivo
[35] = Clearance in Sprague-Dawley rat at 20 mg/kg, po measured upto 12 hrs by UPLC-MS/ESI analysis; type: ADME, organism-based; details: in vivo

COc1cc(-c2nccc3[nH]c(-c4cccc5c4ccn5C)nc23)cc(OC)c1OC
survival at 336 h [1]: 100% | Activity (HepG2 [2]): 31.3% | Activity (HepG2 [3]): 27.34% | Activity (HepG2 [4]): 5.74% | Activity (HepG2 [5]): 22.16% | half-life [6]: 1.08 h | Activity [7]: Non-Toxic | Activity (HepG2 [8]): 83.1% | survival at 336 h [9]: 60% | Activity [10]: Non-Toxic | Activity (HepG2 [11]): 0.201% | Activity (HepG2 [12]): 55.89% | Activity [13]: Non-Toxic | inhibition (HepG2 [14]): Dose-Dependent Effect | Activity (HepG2 [15]): 0.189% | Activity (HepG2 [16]): 20.35% | Activity [17]: Non-Toxic | Ratio IC50 [18]: 1.8 | AUC(0-t) at 12 h [19]: 3330 ng·h/mL | MRT last at 12 h [20]: 3.06 h | viability at 0.005 µM (HepG2 [21]): 11% | Activity (HepG2 [22]): 32.2% | viability at 0.0005 µM (HepG2 [23]): 84.6% | IC50 (B16-F10 [24]): 2 nM | Activity (B16-F10 [25]): 0.954% | inhibition in vivo at 5 mg/kg (B16-F10 [26]): 63% | IC50 [27]: 8.5 nM | Activity (HepG2 [28]): 49.61% | IC50 at 24 h [29]: 62.1 nM | half-life [30]: 1.83 h | Kd (Tubulin): 18300 nM | Activity (HepG2 [31]): 36.46% | IC50 (MCF7): 6 nM | Activity (HepG2 [32]): 0.428% | survival at 336 h [33]: 0% | MRT last at 12 h [34]: 1.79 h | CL/F [35]: 107 mL/min/kg

Source: ChEMBL document CHEMBL5338766, “X-ray Crystal Structure-Guided Discovery of Novel Indole Analogues as Colchicine-Binding Site Tubulin Inhibitors with Immune-Potentiating and Antitumor Effects against Melanoma” (J Med Chem, 2023)
